Laboratory results from patent US20130064901A1, “GENE EXPRESSION PROFILING FOR CLASSIFYING AND TREATING GASTRIC CANCER” (Agency for Science, Technology and Research, priority 2011, published 2013).
“Also recorded” adds a separate entry of the source. Where two headings read alike, the source gives them in different places.

How the values were obtained:
GC subsets = conditions: INT-0116, ten-year update subgroup analysis; cited from earlier work
[1] = tested on: G-DIF gastric cancer cell lines; test: In vitro cell proliferation assay (MTS), G-DIF cell lines; format: cell-based, human; conditions: mean of 17 G-DIF cell lines, drug concentration at which 50% growth inhibition is achieved, read-out: Mean GI-50 concentration
Method: (§1) Cell proliferation assays were performed using a tetrazolium compound-based colorimetric method. Adherent or semi-adherent cell lines with doubling times less than 48 hours were used in this analysis. The cell lines for which cell proliferation assays were performed are: YCC19, YCC18, TMK1, YCC2, CLS145, YCC9, YCC6, NUGC3, HGC-27, Fu97, Ist1, YCC7, YCC16, Hs746T, MKN45, KatoIII, AGS, SNU719, AZ521, YCC1, MKN1, YCC11, IM95, MKN7, YCC3, YCC10, SCH and N87. Cell proliferation assays were performed using a tetrazolium compound-based colorimetric method (MTS kit, Promega, Madison, Wis., USA) according to the manufacturer's instructions and measured using an EnVision 2104 multilabel plate reader (Perkin Elmer, Finland) at 490 nm. Inhibition of cell growth by drugs was also visually confirmed under microscopy. Drugs used include cisplatin (Sigma, 479306-1G), oxaliplatin (Sigma, O9512), 5-Fluorouracil (Sigma, F6627-1G).
(§2) Of the 37 cell lines, 28 cell lines (11 G-INT and 17 G-DIF) had growth characteristics suitable for in vitro drug sensitivity testing. 5-FU, oxaliplatin and cisplatin are drugs presently employed in the adjuvant and 1st line palliative treatment of GC. The 28 cell lines were treated with increasing concentrations of these drugs.

[2] = tested on: G-INT gastric cancer cell lines; test: In vitro cell proliferation assay (MTS), G-INT cell lines; format: cell-based, human; conditions: for In vitro sensitivity of G-INT versus G-DIF cell lines: 28 cell lines (11 G-INT and 17 G-DIF) treated with increasing concentrations; for GI50: mean of 11 G-INT cell lines, drug concentration at which 50% growth inhibition is achieved, read-out: Mean GI-50 concentration
Method: as §1, §2

| SMILES | Benefit from 5-FU therapy by GC subset (GC subsets) | GI50 ([1]; Homo sapiens) | In vitro sensitivity of G-INT versus G-DIF cell lines [2] | GI50 ([2]; Homo sapiens) | GI50 [1] | GI50 [2] |
| --- | --- | --- | --- | --- | --- | --- |
| O=c1[nH]cc(F)c(=O)[nH]1 [5-FU, 5-Fluorouracil] | all GC subsets benefited from 5-FU therapy except for cases with diffuse histology | 23.2 µM | G-INT cell lines were significantly more sensitive | 5.2 µM |  |  |
| N.N.[Cl][Pt][Cl] [cisplatin] |  |  | G-DIF cell lines were more sensitive; also recorded: more resistant |  | 13.3 µM | 38.6 µM |
| O=C1[O][Pt]2([NH][C@@H]3CCCC[C@H]3[NH]2)[O]C1=O [oxaliplatin] |  |  | G-INT cell lines were significantly more sensitive |  | 5.49 µM | 1.33 µM |
